According to the supplement of paper PMC9663587:

Key:
YKL-5-124 = compound: C=CC(=O)Nc1ccc(C(=O)Nc2[nH]nc3c2CN(C(=O)N[C@H](CN(C)C)c2ccccc2)C3(C)C)cc1 [YKL-5-124]; assay: increase in dead-cell fraction, 72 h; higher = more death;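 further: breast cancer cell lines in 384-well plates, stained with Hoechst plus LIVE/DEAD far red dye and imaged, cells above an LDR intensity threshold counted dead, Hoechst-negative corpses included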
BSJ-03-123 = compound: CC(=O)c1c(C)c2cnc(Nc3ccc(N4CCN(CCOCCOCCOCCNC(=O)COc5cccc6c5C(=O)N(C5CCC(=O)NC5=O)C6=O)CC4)cn3)nc2n(C2CCCC2)c1=O [BSJ-03-123]; assay: as above
[1] = compound: CC(=O)c1c(C)c2cnc(Nc3ccc(N4CCNCC4)cn3)nc2n(C2CCCC2)c1=O; assay: as above
[2] = compound: CCN1CCN(Cc2ccc(Nc3ncc(F)c(-c4cc(F)c5nc(C)n(C(C)C)c5c4)n3)nc2)CC1; assay: as above
Neratinib/HKI272 [3] = compound: T1, CCOc1cc2ncc(C#N)c(Nc3ccc(OCc4ccccn4)c(Cl)c3)c2cc1NC(=O)/C=C/CN(C)C [Neratinib/HKI272]; assay: as above
[4] = compound: CCc1cnn2c(NCc3ccc[n+]([O-])c3)cc(N3CCCC[C@H]3CCO)nc12; assay: as above
LEE011/Ribociclib = compound: CN(C)C(=O)c1cc2cnc(Nc3ccc(N4CCNCC4)cn3)nc2n1C1CCCC1 [LEE011/Ribociclib]; assay: as above
THZ531 = compound: CN(C)C/C=C/C(=O)Nc1ccc(C(=O)N2CCC[C@@H](Nc3ncc(Cl)c(-c4c[nH]c5ccccc45)n3)C2)cc1 [THZ531]; assay: as above
THZ1 = compound: CN(C)C/C=C/C(=O)Nc1ccc(C(=O)Nc2cccc(Nc3ncc(Cl)c(-c4c[nH]c5ccccc45)n3)c2)cc1 [THZ1]; assay: as above
Flavopiridol [5] = compound: T2, CN1CC[C@H](c2c(O)cc(O)c3c(=O)cc(-c4ccccc4Cl)oc23)[C@H](O)C1 [Flavopiridol]; assay: as above
Neratinib/HKI272 [6] = compound: T1, Neratinib/HKI272; assay: GR value, 72 h; higher = faster growth (1 = untreated, <0 = killing);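 further: breast cancer and non-malignant breast epithelial lines, nine half-log doses, viable cells counted by Hoechst and LIVE/DEAD dye imaging versus time-zero plates and DMSO controls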
Flavopiridol [7] = compound: T2, Flavopiridol; assay: as above

Cell Line: HTERT_HME1
- increase in dead-cell fraction (YKL-5-124; 0.001 µM): 0.0989
- increase in dead-cell fraction (YKL-5-124; 0.003162 µM): 0.131
- increase in dead-cell fraction (YKL-5-124; 0.01 µM): 0.165
- increase in dead-cell fraction (YKL-5-124; 0.03162 µM): 0.151
- increase in dead-cell fraction (YKL-5-124; 0.1 µM): 0.181
- increase in dead-cell fraction (YKL-5-124; 0.3162 µM): 0.224
- increase in dead-cell fraction (YKL-5-124; 1 µM): 0.144
- increase in dead-cell fraction (YKL-5-124; 3.162 µM): 0.293
- increase in dead-cell fraction (YKL-5-124; 10 µM): 0.304
- increase in dead-cell fraction (BSJ-03-123; 0.001 µM): 0.0124
- increase in dead-cell fraction (BSJ-03-123; 0.003162 µM): -0.0077
- increase in dead-cell fraction (BSJ-03-123; 0.01 µM): 0.0297
- increase in dead-cell fraction (BSJ-03-123; 0.03162 µM): 0.0411
- increase in dead-cell fraction (BSJ-03-123; 0.1 µM): 0.0394
- increase in dead-cell fraction (BSJ-03-123; 0.3162 µM): 0.0338
- increase in dead-cell fraction (BSJ-03-123; 1 µM): 0.131
- increase in dead-cell fraction (BSJ-03-123; 3.162 µM): 0.119
- increase in dead-cell fraction (BSJ-03-123; 10 µM): 0.363
- increase in dead-cell fraction ([1]; 0.0003162 µM): -0.0026
- increase in dead-cell fraction ([1]; 0.001 µM): 0.0007
- increase in dead-cell fraction ([1]; 0.003162 µM): -0.0013
- increase in dead-cell fraction ([1]; 0.01 µM): -0.0019
- increase in dead-cell fraction ([1]; 0.03162 µM): 0.0014
- increase in dead-cell fraction ([1]; 0.1 µM): 0.0147
- increase in dead-cell fraction ([1]; 0.3162 µM): 0.0168
- increase in dead-cell fraction ([1]; 1 µM): 0.0267
- increase in dead-cell fraction ([1]; 3.162 µM): 0.0446
- increase in dead-cell fraction ([2]; 0.001 µM): 0.0004
- increase in dead-cell fraction ([2]; 0.003162 µM): -0.0056
- increase in dead-cell fraction ([2]; 0.01 µM): -0.0023
- increase in dead-cell fraction ([2]; 0.03162 µM): 0.002
- increase in dead-cell fraction ([2]; 0.1 µM): 0.0067
- increase in dead-cell fraction ([2]; 0.3162 µM): 0.0112
- increase in dead-cell fraction ([2]; 1 µM): 0.0329
- increase in dead-cell fraction ([2]; 3.162 µM): 0.0399
- increase in dead-cell fraction ([2]; 10 µM): 0.111
- increase in dead-cell fraction (Neratinib/HKI272 [3]; 0.0003162 µM): -0.0015
- increase in dead-cell fraction (Neratinib/HKI272 [3]; 0.001 µM): 0.0018
- increase in dead-cell fraction (Neratinib/HKI272 [3]; 0.003162 µM): 0.0002
- increase in dead-cell fraction (Neratinib/HKI272 [3]; 0.01 µM): -0.0031
- increase in dead-cell fraction (Neratinib/HKI272 [3]; 0.03162 µM): -0.0026
- increase in dead-cell fraction (Neratinib/HKI272 [3]; 0.1 µM): 0.0016
- increase in dead-cell fraction (Neratinib/HKI272 [3]; 0.3162 µM): 0.0161
- increase in dead-cell fraction (Neratinib/HKI272 [3]; 1 µM): 0.0278
- increase in dead-cell fraction (Neratinib/HKI272 [3]; 3.162 µM): 0.106
- increase in dead-cell fraction ([4]; 0.0001 µM): -0.0004
- increase in dead-cell fraction ([4]; 0.0003162 µM): -0.0019
- increase in dead-cell fraction ([4]; 0.001 µM): 0.0008
- increase in dead-cell fraction ([4]; 0.003162 µM): 0.0059
- increase in dead-cell fraction ([4]; 0.01 µM): 0.0263
- increase in dead-cell fraction ([4]; 0.03162 µM): 0.571
- increase in dead-cell fraction ([4]; 0.1 µM): 0.558
- increase in dead-cell fraction ([4]; 0.3162 µM): 0.535
- increase in dead-cell fraction ([4]; 1 µM): 0.511
- increase in dead-cell fraction (LEE011/Ribociclib; 0.001 µM): 0.0038
- increase in dead-cell fraction (LEE011/Ribociclib; 0.003162 µM): 0.0127
- increase in dead-cell fraction (LEE011/Ribociclib; 0.01 µM): 0.0406
- increase in dead-cell fraction (LEE011/Ribociclib; 0.03162 µM): 0.0372
- increase in dead-cell fraction (LEE011/Ribociclib; 0.1 µM): 0.0514
- increase in dead-cell fraction (LEE011/Ribociclib; 0.3162 µM): 0.0715
- increase in dead-cell fraction (LEE011/Ribociclib; 1 µM): 0.0391
- increase in dead-cell fraction (LEE011/Ribociclib; 3.162 µM): 0.0932
- increase in dead-cell fraction (LEE011/Ribociclib; 10 µM): 0.132
- increase in dead-cell fraction (THZ531; 0.0001 µM): -0.0002
- increase in dead-cell fraction (THZ531; 0.0003162 µM): -0.0145
- increase in dead-cell fraction (THZ531; 0.001 µM): 0.0054
- increase in dead-cell fraction (THZ531; 0.003162 µM): -0.0171
- increase in dead-cell fraction (THZ531; 0.01 µM): -0.0178
- increase in dead-cell fraction (THZ531; 0.03162 µM): 0.0065
- increase in dead-cell fraction (THZ531; 0.1 µM): 0.0042
- increase in dead-cell fraction (THZ531; 0.3162 µM): 0.175
- increase in dead-cell fraction (THZ531; 1 µM): 0.386
- increase in dead-cell fraction (THZ1; 0.0001 µM): -0.0026
- increase in dead-cell fraction (THZ1; 0.0003162 µM): 0.0021
- increase in dead-cell fraction (THZ1; 0.001 µM): 0.0031
- increase in dead-cell fraction (THZ1; 0.003162 µM): 0.0375
- increase in dead-cell fraction (THZ1; 0.01 µM): 0.292
- increase in dead-cell fraction (THZ1; 0.03162 µM): 0.545
- increase in dead-cell fraction (THZ1; 0.1 µM): 0.528
- increase in dead-cell fraction (THZ1; 0.3162 µM): 0.548
- increase in dead-cell fraction (THZ1; 1 µM): 0.71
- increase in dead-cell fraction (Flavopiridol [5]; 0.0001 µM): -0.0184
- increase in dead-cell fraction (Flavopiridol [5]; 0.0003162 µM): -0.0042
- increase in dead-cell fraction (Flavopiridol [5]; 0.001 µM): 0.0033
- increase in dead-cell fraction (Flavopiridol [5]; 0.003162 µM): 0.0052
- increase in dead-cell fraction (Flavopiridol [5]; 0.01 µM): 0.0001
- increase in dead-cell fraction (Flavopiridol [5]; 0.03162 µM): 0.007
- increase in dead-cell fraction (Flavopiridol [5]; 0.1 µM): 0.051
- increase in dead-cell fraction (Flavopiridol [5]; 0.3162 µM): 0.183
- increase in dead-cell fraction (Flavopiridol [5]; 1 µM): 0.577
- GR value (Neratinib/HKI272 [6]; 0.0003162 µM): 1.07 GR
- GR value (Neratinib/HKI272 [6]; 0.001 µM): 1.09 GR
- GR value (Neratinib/HKI272 [6]; 0.003162 µM): 1.08 GR
- GR value (Neratinib/HKI272 [6]; 0.01 µM): 1.01 GR
- GR value (Neratinib/HKI272 [6]; 0.03162 µM): 0.89 GR
- GR value (Neratinib/HKI272 [6]; 0.1 µM): 0.57 GR
- GR value (Neratinib/HKI272 [6]; 0.3162 µM): 0.349 GR
- GR value (Neratinib/HKI272 [6]; 1 µM): 0.269 GR
- GR value (Neratinib/HKI272 [6]; 3.162 µM): 0.105 GR
- GR value (Flavopiridol [7]; 0.0001 µM): 1 GR
- GR value (Flavopiridol [7]; 0.0003162 µM): 0.975 GR
- GR value (Flavopiridol [7]; 0.001 µM): 0.942 GR
- GR value (Flavopiridol [7]; 0.003162 µM): 0.876 GR
- GR value (Flavopiridol [7]; 0.01 µM): 0.892 GR
- GR value (Flavopiridol [7]; 0.03162 µM): 0.806 GR
- GR value (Flavopiridol [7]; 0.1 µM): 0.536 GR
- GR value (Flavopiridol [7]; 0.3162 µM): 0.155 GR
- GR value (Flavopiridol [7]; 1 µM): -0.408 GR
